{"source": "patent US20140342931A1", "about": "“METHOD FOR PREDICTING RESPONSE TO ENDOCRINE THERAPY” (PAMGENE B.V., priority 2011, published 2014)", "test_system": "Estrogen Receptor alpha (ERα)", "description": "Under tamoxifen, a known antagonist of the ERα, this phosphorylation affects the conformation of ERα and changes its orientation to the protein SRC-1. In this example we studied the effect of ERαSer305 phosphorylation on the binding of cofactors in transfected cells and in breast tumor specimens. We used the methods and coregulator peptide array as described in WO 2008/028978 containing 154 coregulator peptides (table 1).\nERαY/C-transfected U2OS cells were stimulated with cAMP to induce PKA-mediated ERα phosphorylation. The serine-to-alanine mutant ERαSer305Ala-Y/C was used as a negative control (FIG. 1).\nThe effect of PKA activation on peptide binding was also studied under tamoxifen conditions."}
{"compound": "4-hydroxy-Tamoxifen [4OH-tamoxifen]", "values": [{"measurement": "ERα binding to the control peptide (IDNR13) at saturating tamoxifen concentrations", "setting": "concentration range up to 10^-5 M, ERα-wt and ERαSer305Ala, with or without cAMP (PKA activation)", "value": "largely blocked"}]}
{"compound": "C[C@]12CC[C@@H]3c4ccc(O)cc4CC[C@H]3[C@@H]1CC[C@@H]2O", "note": "[estradiol, 17-β-Estradiol]", "values": [{"measurement": "modulation of ERα binding to coregulators", "setting": "concentration range of estradiol up to 10^−8 M, control peptide IDNR13 (NCOA1_677_700), wild type and Ser305Ala ERα, cAMP stimulated and control cells", "value": "dose dependent modulation"}]}
